Literature values in patent publication US20170049851A1, “Method for Medical Treatment” (priority 2015, published 2017).

Details: healthy as well as unhealthy persons; some adverse effects, largely gastrointestinal, with very high intakes

**Q.** Which “daily dosage found to be tolerated” value does the source give for `COC1=C(OC)C(=O)C(C/C=C(\C)CC/C=C(\C)CC/C=C(\C)CC/C=C(\C)CC/C=C(\C)CC/C=C(\C)CC/C=C(\C)CC/C=C(\C)CC/C=C(\C)CCC=C(C)C)=C(C)C1=O` [CoQ10, ubiquinone] here?
**A.** The value was “up to 3600 mg”.
